{
  "source": "patent US8987316B2",
  "about": "“Isocyanate and isothiocyanate compounds for cancer treatment” (priority 2011, dated 2015)",
  "key": {"[1]": {"experiment": "Necrotic changes in the kidneys of treated animals", "type": "in vivo, nude mice", "conditions": "affected animals/animals", "procedure": "(§1) All the tests were carried out using female nude mice under standard conditions for the keeping of animals with controlled illumination and temperature. The animals were given water and food as desired.\nNo necrotic changes were found in the kidneys of the animals treated with the compound according to the invention. This confirms the excellent tolerability profile of the compounds according to the invention."}, "[2]": {"system": "CXF280 xenograft tumor (colon carcinoma)", "experiment": "Dose-dependent anti-tumor activity in the CXF280 colon carcinoma xenograft model", "type": "in vivo", "procedure": "(§2) Breast tumors (MAXF 401) were implanted subcutaneously into the rear members of the mice aged 10 weeks. The increase in the volume of the individual tumors was measured using microcallipers, and the size of the tumor was calculated according to the formula a*b^2/2 (where a is the largest diameter of the tumor and b is the vertical axis). When the tumor volume had increased to 80-120 mm^3, the animals were allocated at random into test groups of in each case 6 animals.\nThe anti-tumor activity of the compound of Example 2a was thereby determined in the CXF280 xenograft tumor model in the nude mouse. Subcutaneous implantation of the tumor and the determination of tumor volumes were carried out as described hereinbefore. The test substance was administered by ip injection twice weekly in the mentioned doses in the form of the sodium salt as an aqueous solution, over a period of 4 weeks. Groups of in each case 8 animals were used."}, "[3]": {"system": "MAXF-401 xenograft tumor", "experiment": "Dose-dependent anti-tumor activity in the MAXF-401 xenograft tumor model", "type": "in vivo", "procedure": "as §2\nThe anti-tumor activity of the substance of Example 2a (sodium salt) was tested in a xenograft tumor panel. Therefore, xenografts of human tumors derived from the mentioned cancers were implanted in nude mice. The implantation and the determination of tumor volumes were carried out as described hereinbefore. Groups of 5 to 8 animals were used. The test compound was administered by ip injection twice weekly in the mentioned doses in the form of the sodium salt as an aqueous solution.\nTherein, the anti-tumor activity of the compound of Example 2a (sodium salt) was examined in the MAXF-401 xenograft tumor model in the nude mouse. Subcutaneous implantation of the tumor and the determination of the tumor volume was carried out as described hereinbefore. The test compound was administered by ip injection twice weekly in the mentioned doses in the form of the sodium salt as an aqueous solution over a period of 4 weeks. […] A dose of 100 mg/kg was determined as the threshold dose, ≧200 mg/kg as the ED90 of the anti-tumor activity."}, "[4]": {"system": "Breast tumors (MAXF 401)", "experiment": "Breast tumor MAXF 401 xenograft in nude mice, T/C value and mortality", "type": "in vivo", "conditions": "ip twice weekly over 5 weeks", "procedure": "as §1, §2\nThe test compound (in the form of sodium salts) was dissolved in a saline solution, and 5% Klucel (hydroxypropylcellulose) was added in order to dissolve the test compound in the carrier. The compound was administered by intraperitoneal injection. A volume of 10 ml/kg body weight was injected. […] The tumor volume and the body weight were checked twice weekly, and the relative tumor volumes were calculated as the […]. […]\nOn the basis of the relative tumor volumes of the animals treated with the test compound compared with the tumor volumes of the controls treated only with the carrier, the T/C values were calculated and were used as the index of anti-tumor activity. […]"}, "[5]": {"conditions": "MAXF-401, ip twice weekly over 4 weeks, sodium salt"}},
  "data": [
    {"smiles": "O=C(O)CCOc1ccc(C(=O)c2ccc(N=C=S)cc2)cc1", "note": "[Example 2a]", "values": [
      {"measurement": "Acute single-cell necrosis", "setting": "[1]", "result": "0/9"},
      {"measurement": "Focal tubular necrosis", "setting": "[1]", "result": "0/9"},
      {"measurement": "tumor growth inhibition and remission", "setting": "[2]; CXF280, dose group of 200 mg/kg and 300 mg/kg", "result": "complete inhibition of tumor growth and the induction of remissions to obliteration of the tumor"},
      {"measurement": "tolerability", "setting": "[2]; CXF280, dose range used", "result": "well tolerated"},
      {"measurement": "weight loss in the animals", "setting": "[2]; CXF280, dose range used", "result": "not associated with a significant weight loss"},
      {"measurement": "anti-tumor action", "setting": "[2]; CXF280, doses of 100, 200 or 300 mg/kg ip twice weekly over 4 weeks", "result": "pronounced anti-tumor action"},
      {"measurement": "ED90 doses", "setting": "[2]; CXF280, ip twice weekly over 4 weeks", "result": 200, "unit": "mg/kg"},
      {"measurement": "tolerability", "setting": "[3]; MAXF-401, dose range used", "result": "well tolerated"},
      {"measurement": "tumor response under therapy", "setting": "[3]; MAXF-401, dose ≧200 mg/kg", "result": "remission of the tumors was observed"},
      {"measurement": "ED90 of the anti-tumor activity", "setting": "[3]; [5]", "result": "≥ 200", "unit": "mg/kg"},
      {"measurement": "threshold dose of the anti-tumor activity", "setting": "[3]; [5]", "result": 100, "unit": "mg/kg"},
      {"measurement": "T/C value", "setting": "[4]; MAXF 401 breast tumor, sodium salt, ratio of tumor size treated/untreated, 100% would be no activity", "result": 1.7},
      {"measurement": "Mortality", "setting": "[4]; dead animals/animals in the group", "result": "0/6"}
    ]}
  ]
}
